# “Also recorded” adds a separate entry of the source.
# Key:
# GPX4^U46C [1] = biological target: T1, GPX4^U46C (Homo sapiens, UniProt P36969, U73C); assay: Thermal shift assay (screen of LOC library); assay type: binding
# T1 construct: His6 (N, cleaved yes); made in house; host or cells: E. coli BL21-Gold (DE3), M9 minimal medium with 15NH4Cl
# T1 sequence (P36969 33-197 U73C): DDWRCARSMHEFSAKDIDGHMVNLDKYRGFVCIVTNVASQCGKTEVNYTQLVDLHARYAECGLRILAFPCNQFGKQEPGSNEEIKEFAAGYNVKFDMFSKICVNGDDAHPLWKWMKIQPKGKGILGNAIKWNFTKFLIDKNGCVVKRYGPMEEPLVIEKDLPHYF
# Method: To fully utilize the versatility shown by the […] site to accommodate structurally diverse compounds, we applied thermal shift assay to screen 9,719 compounds in the Lead-Optimized-Compound (LOC) library for in vitro binders of GPX4^U46C, which would shift the melting temperature of GPX4^U46C (|ΔTm|>2° C., FIG. 12D) (Kaplan et al. 2015).
# Since the binding of small molecules may alter the thermostability of protein, we applied thermal shift assay to screen the LOC library, which determined binding of ligand from the change of the unfolding transition temperature (ΔTm) obtained in the presence of ligands relative to that obtained in the absence of ligands (Kaplan et al. 2015; Lo et al. 2004). For higher throughput purpose, we adapted the assay on 384-well PCR plate. With the assistance of Biomek Automated Liquid Handler (Beckman), 2 μl 10 mM stock solution (in 100% DMSO) of the each compound was transferred from 384-well library plates to 38 μl FPLC buffer (100 mM Tris pH 8.0, 300 mM NaCl, 3 mM TCEP) and mixed in each well of a 384-well mother plate. The compound solution was then dispensed, 12 μl per well, into three 384-well PCR plates. GPX4^U46C protein and Sypro orange were manually added to the plate, with the final concentrations of 5 μM and 5×, respectively, to make a volume of 20 μl per well right before thermal shift analysis of the specific plate. The thermal shift assay was performed on the ViiA 7 Real-Time PCR system (Thermo Fisher) with the thermal protocol: 25° for 15 s, Increase temp to 99° at a rate of 0.05°/sec, 99° for 15 sec. The fluorescence was recorded and analyzed by Protein Thermal Shift™ software. The mean |ΔTm| value for the biological triplicates were calculated and used for hit identification.
# GPX4 = biological target: T2, GPX4 (Homo sapiens, UniProt P36969, U73C); assay: Microscale thermophoresis (MST) binding to GPX4; settings: Table 1
# T2 sequence (P36969 33-197 U73C): T1 sequence (P36969 33-197 U73C)
# Source text: Therefore, we applied a strategy of computer-facilitated design, based on MD simulation (Desmond) and Glide docking (Schrödinger Suite), and experimental high-throughput screening of a lead-optimized compound library of 10,000 compounds (FIGS. 6A-6E). All candidates were first evaluated by thermal denaturation assay and microscale thermophoresis (MST) to validate binding to GPX4 (Table 1). Surface plasmon resonance (SPR) and isothermal titration calorimetry (ITC) were then applied to precisely measure their binding kinetics and affinities, while ^1H-^15N heteronuclear single-quantum coherence (HSQC) NMR spectroscopy informed us of binding sites. We optimized two GPX4-specific activity assays to examine enzymatic inhibitory effects of hit compounds—LC-MS-based substrate/product monitoring and an NADPH-coupled assay. […] Some L880 analogues were also synthesized and tested (Table 2).
# GPX4^U46C [2] = biological target: T1, GPX4^U46C; assay: 1H,15N-HSQC-NMR of 15N-labeled GPX4^U46C; assay type: binding
# Method: Uniformly ^15N-labeled GPX4^U46C protein with N-terminal His6 tag was prepared. The GPX4^U46C construct was expressed in E. coli BL21-Gold (DE3) cells (Stratagene) growing at 37° C. in M9 minimal medium supplemented with […] ampicillin, 2 mM MgSO4, […] CaCl2, 1× trace metals, 1×RPMI 1640 vitamin stock (Sigma-Aldrich, #R7256), […] biotin, […] thiamine hydrochloride, 4 g/L glucose, and 3 g/L ^15NH4Cl as the sole nitrogen source. The following induction, lysis, and protein purification was the same as for the non-isotope-labeled His-tagged GPX4^U46C described above, except the N-terminal His6 tag was removed by adding 5 U/mg thrombin before FPLC purification. The thrombin reaction was after a buffer exchange to remove imidazole, which otherwise would inhibit thrombin, and was allowed to proceed overnight at 4° C.
# Then the protein solution was concentrated to 50 μM before testing. For HSQC of GPX4 with other inhibitors, 50 μM ^15N-labeled GPX4 was preincubated with 800 μM inhibitor to be tested for […] at room temperature in buffer (100 mM MES, 5 mM TCEP, pH 6.5). D20 (10%) was then added for the field frequency lock. The ^1H-^15N HSQC spectra were collected on Bruker Avance III 500 Ascend (500 MHz) spectrometers (Columbia University) at 298K. The ^1H carrier frequency was positioned at the water resonance. The ^15N carrier frequency was positioned at 115 ppm. The spectral width in the ^1H dimension was 7,500 Hz and the width in the ^15N dimension was 1,824.6 Hz. Suppression of water signal was accomplished using the WATERGATE sequence. Heteronuclear decoupling was accomplished using GARP decoupling scheme.
# GPX4^U46C [3] = biological target: T1, GPX4^U46C; assay: Intact protein MALDI MS analysis, GPX4^U46C; assay type: binding; settings: protein preincubated with excess inhibitor
# Method: GPX4^U46C or GPX4^AllCys(−)-A46C protein was pre-incubated with DMSO control or the inhibitor to be tested prior to MALDI MS analysis: 50 μM GPX4 protein was incubated with 500 μM inhibitors in FPLC buffer (100 mM Tris pH 8.0, 300 mM NaCl, and 3 mM TCEP) with 5% DMSO at RT for 1 hour before transferring to 4° C. overnight.
# 1 μl of the ligand-free protein (pre-incubated with DMSO) or protein-inhibitor complex (pre-incubated with the inhibitor to be tested) was mixed with 9 μl of 10 mg/ml sinapinic acid in the matrix solution (70:30 water/acetonitrile, with 0.1% TFA). 1.0 μl of the final mix was deposited onto the target carrier and allowed to air dry. MALDI spectrum was recorded using Bruker ultrafleXtreme MALDI-TOF instrument. The range of m/z detection and suppression was adjusted to accommodate the molecular weight of target protein. 2000 Hz and 50% intensity was applied for the laser setting. For each sample, five cumulative spectra were collected and the sum was recorded for analysis. All MALDI spectra of protein-inhibitor complex were compared with ligand-free protein to determine the mass shift. Mass shifts were aligned with the mass of potential staying group of each inhibitor to conclude covalent binding.
# Aqueous solubility = assay type: physicochemical
SMILES,Thermal shift (GPX4^U46C [1]; Table 1),|ΔTm| (GPX4^U46C [1]; thermal shift screening top hit) [°C],MST (GPX4),Kd (GPX4; read-out: MST Kd) [µM],binding mode by HSQC NMR (GPX4^U46C [2]),Binding site (GPX4^U46C [2]; Table 1),HSQC assay (GPX4^U46C [2]; Table 1),covalent binding to GPX4^U46C by intact protein MALDI MS (GPX4^U46C [3]),solubility in aqueous solution (Aqueous solubility)
COc1cccc2[nH]c(C(=O)n3ccnc3)cc12 [LOC1886],positive,3,positive,100,non-covalently binds to the RSL3-binding site; also recorded: strongly interacted with the cys66 binding site,Allosteric Site 1,positive,covalently bound,
"COC(=O)c1ccc([C@@H]2c3[nH]c4ccccc4c3C[C@@H](C(=O)OC)N2C(=O)CCl)cc1 [RSL3, (1S, 3R)-RSL3]",,,,,global conformational change induced by binding of RSL3 to cys66,,,1:1 covalent binding,low

# Source: patent US20230167058A1, “GPX4 COMPOUNDS AND COMPOSITIONS AND METHODS OF TREATMENT USING SAME” (THE TRUSTEES OF COLUMBIA UNIVERSITY IN THE CITY OF NEW YORK, priority 2020, published 2023)
